Target: T1, EPHA8 (Homo sapiens, UniProt P29322)
T1 construct: purchased Thermo Fisher Scientific (Life Technologies) SelectScreen
Test: SelectScreen Z'LYTE
Type: biochemical
Procedure, shortened: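 Percent values come from Thermo SelectScreen profiling of NU5455, combining activity and binding assays. CSF1R was run in Z'LYTE format at Km app ATP, and CAMK1 in Adapta format with ATP listed at 10.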

T1 sequence (P29322 28-1005): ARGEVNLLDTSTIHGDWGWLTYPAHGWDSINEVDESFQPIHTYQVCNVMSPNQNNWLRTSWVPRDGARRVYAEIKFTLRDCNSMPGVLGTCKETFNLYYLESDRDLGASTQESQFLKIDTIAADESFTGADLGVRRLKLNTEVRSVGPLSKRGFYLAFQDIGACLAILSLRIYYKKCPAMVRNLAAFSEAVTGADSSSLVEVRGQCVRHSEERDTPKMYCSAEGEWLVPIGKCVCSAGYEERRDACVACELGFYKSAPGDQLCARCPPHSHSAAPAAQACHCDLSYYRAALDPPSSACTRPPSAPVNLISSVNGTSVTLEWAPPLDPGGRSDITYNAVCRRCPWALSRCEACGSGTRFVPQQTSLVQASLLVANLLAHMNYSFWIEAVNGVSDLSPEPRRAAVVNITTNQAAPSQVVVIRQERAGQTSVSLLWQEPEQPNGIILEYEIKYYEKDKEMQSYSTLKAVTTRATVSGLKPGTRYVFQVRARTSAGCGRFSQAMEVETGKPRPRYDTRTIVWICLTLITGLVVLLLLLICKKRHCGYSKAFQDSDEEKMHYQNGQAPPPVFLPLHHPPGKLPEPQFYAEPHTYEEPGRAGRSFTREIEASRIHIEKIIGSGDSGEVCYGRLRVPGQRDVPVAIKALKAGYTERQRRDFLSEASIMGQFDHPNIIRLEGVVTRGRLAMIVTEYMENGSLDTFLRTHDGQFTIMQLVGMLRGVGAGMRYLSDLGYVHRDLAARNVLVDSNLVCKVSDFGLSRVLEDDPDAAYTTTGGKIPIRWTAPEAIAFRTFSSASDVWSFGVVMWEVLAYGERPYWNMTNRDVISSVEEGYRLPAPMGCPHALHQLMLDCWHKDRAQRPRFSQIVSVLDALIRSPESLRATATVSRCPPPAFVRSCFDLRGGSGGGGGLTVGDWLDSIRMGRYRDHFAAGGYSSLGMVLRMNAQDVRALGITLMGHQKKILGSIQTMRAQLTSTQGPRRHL

## CN(C(=O)CN1CCOCC1)c1ccc2sc3c(-c4cccc5c(=O)cc(N6CC7CCC(C6)O7)oc45)cccc3c2c1 [NU5455]
  inhibition at 1 µM: -13.8%
